This note sets out measurements from PMC10983004 (Journal of Medicinal Chemistry, 2024).

“And” between values parts separate entries of the source, which are not always exact repeats. Equal entries are not always repeated. Bounds are passed on as bounds.

Data set [1] concerns the target T1, TET1CD (Homo sapiens, UniProt Q8NFU7).
T1 sequence (Q8NFU7 1418-2136): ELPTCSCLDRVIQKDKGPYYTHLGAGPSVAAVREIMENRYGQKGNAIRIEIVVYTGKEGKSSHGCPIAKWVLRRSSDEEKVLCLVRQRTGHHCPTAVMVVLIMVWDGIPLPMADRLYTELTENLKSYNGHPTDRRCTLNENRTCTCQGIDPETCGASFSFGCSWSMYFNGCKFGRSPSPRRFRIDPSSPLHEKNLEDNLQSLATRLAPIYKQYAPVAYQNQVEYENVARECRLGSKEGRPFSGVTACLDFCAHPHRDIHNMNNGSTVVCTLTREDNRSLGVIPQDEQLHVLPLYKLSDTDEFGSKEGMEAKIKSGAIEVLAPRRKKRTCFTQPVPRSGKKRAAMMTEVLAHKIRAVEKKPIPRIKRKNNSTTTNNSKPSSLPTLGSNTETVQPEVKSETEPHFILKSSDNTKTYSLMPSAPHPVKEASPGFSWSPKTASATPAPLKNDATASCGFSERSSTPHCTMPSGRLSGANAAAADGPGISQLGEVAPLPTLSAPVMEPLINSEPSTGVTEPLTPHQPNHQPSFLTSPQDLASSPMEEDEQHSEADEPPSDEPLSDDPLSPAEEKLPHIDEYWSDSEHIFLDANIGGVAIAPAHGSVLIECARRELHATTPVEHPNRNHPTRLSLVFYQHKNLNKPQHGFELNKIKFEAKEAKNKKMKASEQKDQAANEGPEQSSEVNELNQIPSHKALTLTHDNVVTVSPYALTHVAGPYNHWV
Conditions: for Cellular pEC50 TET1CD: U2OS, 24 h with Dox induction, 5hmC IF, named compound dosed, replicates in parentheses.

Data set [2] deals with T2, TET2CD (Homo sapiens, UniProt Q6N021). Put plainly: biochemical. The following applies: read-out: AlphaScreen TET2CD, % inhibition at 100 μM. (In general: Alpha assays give light when donor and acceptor beads are brought close together.)
For data set [3], the target named is T3, TET3CD (Homo sapiens, UniProt O43151). Put plainly: biochemical. Conditions: read-out: AlphaScreen TET3CD, % inhibition at 100 μM.
For data set [4], the target named is T1, TET1CD. Put plainly: biochemical. The format is biochemical. Also noted: TET1CD (E1418-V2136), which was produced in insect (Sf9) cells, was from a commercial source; purchased Epigentek E12002-1; host or cells: Sf9. The following applies: for inhibition at 100 µM: read-out: AlphaScreen TET1CD, % inhibition at 100 μM.
Data set [5] relates to TET1–3. The format is biochemical, human.
Data set [6] deals with T2, TET2CD.
The target of data set [7] is T3, TET3CD. The following applies: incomplete dose–response curve, N.I. = no inhibition at 100 μM (<20%).
Data set [8] in a line: in vitro. Conditions: human.

T3 sequence (O43151 824-1795): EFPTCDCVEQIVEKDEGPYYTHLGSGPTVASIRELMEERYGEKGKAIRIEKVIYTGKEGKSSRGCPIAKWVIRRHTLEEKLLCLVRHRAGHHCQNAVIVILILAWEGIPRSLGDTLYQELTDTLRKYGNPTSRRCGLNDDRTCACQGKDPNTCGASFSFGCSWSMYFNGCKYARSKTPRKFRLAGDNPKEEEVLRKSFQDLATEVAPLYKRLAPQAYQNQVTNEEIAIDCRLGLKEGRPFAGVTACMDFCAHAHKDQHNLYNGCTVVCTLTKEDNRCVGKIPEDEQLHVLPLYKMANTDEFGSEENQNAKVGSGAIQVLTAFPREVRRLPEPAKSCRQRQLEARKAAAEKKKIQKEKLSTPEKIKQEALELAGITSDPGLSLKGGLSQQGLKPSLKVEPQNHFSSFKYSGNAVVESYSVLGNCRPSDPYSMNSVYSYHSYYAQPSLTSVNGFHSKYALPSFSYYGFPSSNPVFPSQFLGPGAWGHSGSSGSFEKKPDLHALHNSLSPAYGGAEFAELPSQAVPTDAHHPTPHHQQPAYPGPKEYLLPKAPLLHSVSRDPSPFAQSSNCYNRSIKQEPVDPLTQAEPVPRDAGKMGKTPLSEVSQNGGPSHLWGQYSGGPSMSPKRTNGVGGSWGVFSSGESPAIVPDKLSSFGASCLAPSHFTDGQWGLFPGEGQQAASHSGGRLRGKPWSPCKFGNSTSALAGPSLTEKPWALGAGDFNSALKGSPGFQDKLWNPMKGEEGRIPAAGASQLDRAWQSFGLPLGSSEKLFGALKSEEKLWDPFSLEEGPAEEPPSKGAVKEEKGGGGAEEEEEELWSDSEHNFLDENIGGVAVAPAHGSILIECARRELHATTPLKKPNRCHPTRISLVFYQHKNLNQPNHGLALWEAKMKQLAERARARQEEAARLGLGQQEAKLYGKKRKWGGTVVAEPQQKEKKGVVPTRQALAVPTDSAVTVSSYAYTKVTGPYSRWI

For the compound `Cc1nc(C(=O)NCC(=O)O)c(O)c2ccc(Oc3ccccc3)cc12` [Roxadustat], the “Cellular pEC50 TET1CD” value in data set [1] was <3 (3). Moreover, the inhibition (usually the drop in the measured response relative to a control, in per cent) at 100 µM in data set [2] was found to be 44%; in data set [3], 30%; in data set [4] it was 25%.
As to `CN(c1ccccc1)c1ccc2c(c1)CCC[C@H]2CNc1cnccc1C(=O)O` [QC6352], the inhibition at 100 µM in data set [2] stood at 30%; in data set [3], 29%; in data set [4] it was 28%.
`CC(C)C(=O)NC(c1ccco1)c1ccc2cccnc2c1O` (stereo not drawn) [SD70]: in data set [5], the “% inhibition of TETs at 100 μM (stated together)” value is given as 35–55%. Besides, the inhibition at 100 µM in data set [2] was 47%; in data set [3], 55%; in data set [4], 35%.
For `O.O.O=C([O-])CCC(=O)C(=O)[O-].[Na+].[Na+]` [2OG, 2-oxoglutarate], the “KMapp (2OG) TET2CD” value in data set [6] was 11.1 ± 3.5 µM. For the same compound, the “KMapp (2OG) TET1CD” value in data set [4] came out at 2.4 ± 0.3 µM.
With `O=C(O)CNC(=O)c1c(O)c2ccccc2n(Cc2ccccc2)c1=O` [IOX2], in data set [5], the “pIC50 TET1–3 (AlphaScreen, stated together)” value was at most 4. Besides, in data set [5] (read-out: IC50 TET1–3 / TETs (AlphaScreen, stated together)), the IC50 was at least 100 µM. For the same compound, the “AlphaScreen TET3CD, % inhibition at 100 μM” value in data set [7] was “N.I”. Also, in data set [1], the “TET1CD inhibition in cells (in words)” value is reported as “not TET1CD inhibitors in cells”. The “Cellular pEC50 TET1CD” value in data set [1] is ≤3 (2) and < 3 (2). Besides, in data set [8], the CC50 at 24 h is above 1000 µM. Also, the inhibition at 100 µM in data set [2] was determined as 32%; in data set [4] it was 61%.
For the compound `CC(C)c1c(-c2ccccc2)[nH]c2c(C#N)cnn2c1=O` [CPI455], the “AlphaScreen TET2CD, % inhibition at 100 μM” value in data set [6] is reported as “N.I”. The “AlphaScreen TET3CD, % inhibition at 100 μM” value in data set [7] was “N.I”. Also, in data set [4], the “AlphaScreen TET1CD, % inhibition at 100 μM” value was “N.I”.
